Test: Repeat dose tissue distribution study (QWBA, LSC of blood and plasma), 15 daily doses
Assay type: in vivo, Sprague-Dawley rats
Description: Three male rats were administered [^14C]PPI-1011 at 100 mg/kg (100 μCi/kg) once daily for 15 days. One rat was sacrificed at each of the following time points after the administration of the day 15 dose: 24, 48, and 96 h. Terminal blood was collected by cardiac puncture directly into tubes with K2EDTA, an aliquot was stored at 4°C until LSC was performed for radioactivity, while the remaining blood was processed to plasma and stored at −20°C until LSC. Following blood collection, the carcasses were frozen in a cold bath with hexanes and dry ice for at least 8 min and then dried and stored at −70°C for at least 12 h. The carcasses were transferred to a −20°C freezer for at least 12 h before embedding.
QWBA was used to determine radioactivity concentrations in the caecum (contents and mucosa), large intestine (contents and mucosa), small intestine (contents and mucosa), stomach (contents and mucosa), brain, choroid plexus, spinal cord, bone, skin, adrenal gland, pineal body, pituitary gland, thyroid gland, liver, kidney (cortex, medulla and whole kidney), urinary bladder (contents and wall), brown fat, white fat, eye (lens, uveal tract and whole eye), epididymis, prostate gland, testis, ovary, uterus, lung, exorbital lachrymal gland, Harderian gland, pancreas, salivary gland, skeletal muscle, myocardium, cardiac blood, bone marrow, lymph node, spleen, and thymus. As well, LSC was used to determine the total radioactivity in the whole blood and plasma.
The whole-body cryosectioning technique described by ([Ullberg, 1977]) was the basis for embedding and cryosectioning the rats assigned to this study. Each frozen carcass was shaved, and then the limbs and tail were removed prior to embedding. Chilled (4°C) 3% CMC (low viscosity) was utilized to provide a firm support of reinforced ice around each rat and for a secure attachment to the microtome stage. Upon thorough freezing of the embedding medium surrounding each rat, the frozen CMC block was removed from the freezing bath and four 3/8 inch holes were drilled into the block. One cryosection quality control standard (CQCS) was prepared with a known amount of radioactivity and at least 1 ml aliquots were added to each of the four drilled holes. CQCS data were utilized to evaluate the overall performance of the QWBA assay.
Each frozen rat was sagittally trimmed (50–100 μm) at −20°C until exposure of a few target tissues employing a Leica Cryomacrocut heavy-duty microtome (Leica Microsystems Inc.,). Disposable stainless steel Feather type H45L knives (Feather Safety Razor Co., Ltd.) were utilized for trimming and sectioning each frozen rat. Several thinner sections (50 μm) were discarded prior to obtaining multiple 50 μm sections at various cryosectioning levels for QWBA analysis. Upon the collection of at least 60 target tissues in multiple cryosectioning levels, the cryosections were kept in the Cryomacrocut cryochamber for a minimum of 18 h for dehydration depending upon the number of cryosections within the cryochamber. After dehydration was complete, the cryosections were transferred to ambient temperature for processing. Mounted whole-body cryosections and a set of 15 standards were sandwiched between a standard phosphor screen and an exposure cassette. All cryosections were exposed to the phosphor screen for 4-days in a cabinet protected with lead prior to scanning using a Typhoon PhosphorImager (Cytiva). MCID™ Analysis software (InterFocus Ltd.) was utilized to generate a calibration curve of the STD nominal concentrations (nCi/g) versus PhosphorImager response (counts/μm^2 minus background) by weighted (1/x) linear regression analysis ([Potchoiba et al., 1995]; [Potchoiba et al., 1998]). The linear regression curve was then utilized to determine the concentration (nCi/g) of total radioactivity in whole-body tissues and blood. Radioactivity concentrations were expressed as μg Eq/g based on the specific activity of the compound in the final dose formulations. […]

[1] = 48 hr post 15 daily oral 100 mg/kg
[2] = 96 hr post 15 daily oral 100 mg/kg

In the case of `CC/C=C\C/C=C\C/C=C\C/C=C\C/C=C\C/C=C\CCC(=O)O[C@H](CO[14CH2]CCCCCCCCCCCCCCC)COC(=O)CCCCC1CCSS1` (some centres unmarked) [[^14C]PPI-1011], the “Radioactivity concentration, Colliculus” value [1] is reported as 68.0 μg equivalents/g, the “Radioactivity concentration, Diaphragm” value [1] is reported as 172 μg equivalents/g and the “Radioactivity concentration, Esophagus” value [1] is reported as 94.8 μg equivalents/g. For the same compound, the “Radioactivity concentration, Exorbital Lacrimal Gland” value [1] was 82.5 μg equivalents/g, the “Radioactivity concentration, Gastric Mucosa” value [1] was 307 μg equivalents/g and the “Radioactivity concentration, Harderian Gland” value [1] was 69.6 μg equivalents/g. The “Radioactivity concentration, Intra-Orbital Lacrimal Gland” value [1] was 84.5 μg equivalents/g, the “Radioactivity concentration, Kidney” value [1] was 221 μg equivalents/g and the “Radioactivity concentration, Large Intestines” value [1] was 122 μg equivalents/g. The “Radioactivity concentration, Liver” value [1] was 186 μg equivalents/g, the “Radioactivity concentration, Lung” value [1] was 181 μg equivalents/g and the “Radioactivity concentration, Lymph Node” value [1] was 165 μg equivalents/g. For the same compound, the “Radioactivity concentration, Medulla Oblongata” value [1] was 48.4 μg equivalents/g, the “Radioactivity concentration, Muscle” value [1] was 95.4 μg equivalents/g and the “Radioactivity concentration, Myocardium” value [1] was 222 μg equivalents/g. For the same compound, the “Radioactivity concentration, Nasal Turbinates” value [1] was 184 μg equivalents/g, the “Radioactivity concentration, Ocular - Lens” value [1] was 5.05 μg equivalents/g and the “Radioactivity concentration, Ocular - Uveal Tract” value [1] was 59.6 μg equivalents/g. The “Radioactivity concentration, Ocular - Vitreous Body” value [1] was 2.01 μg equivalents/g, the “Radioactivity concentration, Ocular - Whole Eye” value [1] was 15.8 μg equivalents/g and the “Radioactivity concentration, Olfactory Bulb” value [1] was 35.0 μg equivalents/g. The “Radioactivity concentration, Pancreas” value [1] was 312 μg equivalents/g, the “Radioactivity concentration, Parotid Gland” value [1] was 257 μg equivalents/g and the “Radioactivity concentration, Pineal Gland” value [1] was 156 μg equivalents/g. For the same compound, the “Radioactivity concentration, Pituitary Gland” value [1] was 226 μg equivalents/g, the “Radioactivity concentration, Prostate” value [1] was 72.1 μg equivalents/g and the “Radioactivity concentration, Renal Cortex” value [1] was 244 μg equivalents/g. For the same compound, the “Radioactivity concentration, Renal Medulla” value [1] was 183 μg equivalents/g, the “Radioactivity concentration, Salivary Gland” value [1] was 271 μg equivalents/g and the “Radioactivity concentration, Seminal Vesicles” value [1] was 60.7 μg equivalents/g. For the same compound, the “Radioactivity concentration, Skin - Non-Pigmented” value [1] was 101 μg equivalents/g, the “Radioactivity concentration, Small Intestines” value [1] was 164 μg equivalents/g and the “Radioactivity concentration, Spinal Cord” value [1] was 51.2 μg equivalents/g. The “Radioactivity concentration, Spleen” value [1] was 209 μg equivalents/g, the “Radioactivity concentration, Stomach” value [1] was 78.9 μg equivalents/g and the “Radioactivity concentration, Testis” value [1] was 47.2 μg equivalents/g. The “Radioactivity concentration, Thalamus” value [1] was 42.3 μg equivalents/g, the “Radioactivity concentration, Thymus” value [1] was 131 μg equivalents/g and the “Radioactivity concentration, Thyroid” value [1] was 297 μg equivalents/g. For the same compound, the “Radioactivity concentration, Whole Brain” value [1] was 43.7 μg equivalents/g, the “Radioactivity concentration, Adipose - Brown” value [2] was 1301 μg equivalents/g and the “Radioactivity concentration, Adipose - Brown (Vessel Wall)” value [2] was 1249 μg equivalents/g. For the same compound, the “Radioactivity concentration, Adipose - Subcutaneous” value [2] was 1373 μg equivalents/g, the “Radioactivity concentration, Adipose - Visceral” value [2] was 1265 μg equivalents/g and the “Radioactivity concentration, Adrenal Gland” value [2] was 1636 μg equivalents/g. For the same compound, the “Radioactivity concentration, Bladder Wall” value [2] was 101 μg equivalents/g, the “Radioactivity concentration, Blood - QWBA” value [2] was 29.5 μg equivalents/g and the “Radioactivity concentration, Bone Marrow” value [2] was 77.3 μg equivalents/g. The “Radioactivity concentration, Bone Surface” value [2] was 10.5 μg equivalents/g, the “Radioactivity concentration, Cerebellum” value [2] was 55.8 μg equivalents/g and the “Radioactivity concentration, Cerebrum” value [2] was 47.5 μg equivalents/g. For the same compound, the “Radioactivity concentration, Choroid Plexus” value [2] was 121 μg equivalents/g, the “Radioactivity concentration, Colliculus” value [2] was 67.3 μg equivalents/g and the “Radioactivity concentration, Diaphragm” value [2] was 125 μg equivalents/g. The “Radioactivity concentration, Esophagus” value [2] was 87.1 μg equivalents/g, the “Radioactivity concentration, Exorbital Lacrimal Gland” value [2] was 71.0 μg equivalents/g and the “Radioactivity concentration, Gastric Mucosa” value [2] was 210 μg equivalents/g. For the same compound, the “Radioactivity concentration, Harderian Gland” value [2] was 47.9 μg equivalents/g, the “Radioactivity concentration, Intra-Orbital Lacrimal Gland” value [2] was 76.5 μg equivalents/g and the “Radioactivity concentration, Kidney” value [2] was 238 μg equivalents/g. For the same compound, the “Radioactivity concentration, Large Intestines” value [2] was 94.3 μg equivalents/g, the “Radioactivity concentration, Liver” value [2] was 129 μg equivalents/g and the “Radioactivity concentration, Lung” value [2] was 191 μg equivalents/g. For the same compound, the “Radioactivity concentration, Lymph Node” value [2] was 127 μg equivalents/g, the “Radioactivity concentration, Medulla Oblongata” value [2] was 51.8 μg equivalents/g and the “Radioactivity concentration, Muscle” value [2] was 97.9 μg equivalents/g. The “Radioactivity concentration, Myocardium” value [2] was 172 μg equivalents/g, the “Radioactivity concentration, Nasal Turbinates” value [2] was 80.2 μg equivalents/g and the “Radioactivity concentration, Ocular - Lens” value [2] was 6.92 μg equivalents/g. The “Radioactivity concentration, Ocular - Uveal Tract” value [2] was 68.9 μg equivalents/g, the “Radioactivity concentration, Ocular - Vitreous Body” value [2] was 2.06 μg equivalents/g and the “Radioactivity concentration, Ocular - Whole Eye” value [2] was 18.2 μg equivalents/g. For the same compound, the “Radioactivity concentration, Olfactory Bulb” value [2] was 42.2 μg equivalents/g, the “Radioactivity concentration, Pancreas” value [2] was 333 μg equivalents/g and the “Radioactivity concentration, Parotid Gland” value [2] was 220 μg equivalents/g. The “Radioactivity concentration, Pineal Gland” value [2] was 179 μg equivalents/g, the “Radioactivity concentration, Pituitary Gland” value [2] was 191 μg equivalents/g and the “Radioactivity concentration, Prostate” value [2] was 84.8 μg equivalents/g. The “Radioactivity concentration, Renal Cortex” value [2] was 250 μg equivalents/g, the “Radioactivity concentration, Renal Medulla” value [2] was 186 μg equivalents/g and the “Radioactivity concentration, Salivary Gland” value [2] was 227 μg equivalents/g. For the same compound, the “Radioactivity concentration, Seminal Vesicles” value [2] was 54.7 μg equivalents/g, the “Radioactivity concentration, Skin - Non-Pigmented” value [2] was 129 μg equivalents/g and the “Radioactivity concentration, Small Intestines” value [2] was 112 μg equivalents/g. For the same compound, the “Radioactivity concentration, Spinal Cord” value [2] was 53.0 μg equivalents/g, the “Radioactivity concentration, Spleen” value [2] was 147 μg equivalents/g and the “Radioactivity concentration, Stomach” value [2] was 109 μg equivalents/g. The “Radioactivity concentration, Testis” value [2] was 43.3 μg equivalents/g, the “Radioactivity concentration, Thalamus” value [2] was 45.4 μg equivalents/g and the “Radioactivity concentration, Thymus” value [2] was 107 μg equivalents/g. For the same compound, the “Radioactivity concentration, Thyroid” value [2] was 259 μg equivalents/g, the “Radioactivity concentration, Whole Brain” value [2] was 47.3 μg equivalents/g and the “Decline of radioactivity from peak concentration, subcutaneous adipose” value (by 96 HPD, 15 daily doses) was about 1.1 fold. The “Decline of radioactivity from peak concentration, visceral adipose” value (by 96 HPD, 15 daily doses) was about 1.2 fold and the “Uptake in the brain following 15 doses versus single dose, on average” value (rat, in vivo) was 16-18 times.

— paper PMC9081329, “Pharmacokinetics, Mass Balance, Excretion, and Tissue Distribution of Plasmalogen Precursor PPI-1011” (Frontiers in Cell and Developmental Biology, 2022)
